Test results: the supplement of paper PMC9663587

Key:
[1] = compound: CCc1cnn2c(NCc3ccc[n+]([O-])c3)cc(N3CCCC[C@H]3CCO)nc12; assay: GR value, 72 h; higher = faster growth (1 = untreated, <0 = killing);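 also: breast cancer and non-malignant breast epithelial lines, nine half-log doses, viable cells counted by Hoechst and LIVE/DEAD dye imaging versus time-zero plates and DMSO controls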
[2] = compound: CN(C)C/C=C/C(=O)Nc1ccc(C(=O)Nc2cccc(Nc3ncc(Cl)c(-c4c[nH]c5ccccc45)n3)c2)cc1 [THZ1]; assay: as above
[3] = compound: CC(=O)c1c(C)c2cnc(Nc3ccc(N4CCN(CCOCCOCCOCCNC(=O)COc5cccc6c5C(=O)N(C5CCC(=O)NC5=O)C6=O)CC4)cn3)nc2n(C2CCCC2)c1=O [BSJ-03-123]; assay: as above
[4] = compound: CCN1CCN(Cc2ccc(Nc3ncc(F)c(-c4cc(F)c5nc(C)n(C(C)C)c5c4)n3)nc2)CC1; assay: as above
[5] = compound: T1, CN1CC[C@H](c2c(O)cc(O)c3c(=O)cc(-c4ccccc4Cl)oc23)[C@H](O)C1 [Flavopiridol]; assay: as above
[6] = compound: T2, CN(C)C(=O)c1cc2cnc(Nc3ccc(N4CCNCC4)cn3)nc2n1C1CCCC1 [LEE011/Ribociclib]; assay: as above
[7] = compound: CC(=O)c1c(C)c2cnc(Nc3ccc(N4CCNCC4)cn3)nc2n(C2CCCC2)c1=O; assay: as above
[8] = compound: CCOc1cc2ncc(C#N)c(Nc3ccc(OCc4ccccn4)c(Cl)c3)c2cc1NC(=O)/C=C/CN(C)C [Neratinib/HKI272]; assay: as above
[9] = compound: CCN1CCN(Cc2ccc(Nc3ncc(F)c(-c4cc(F)c5nc(C)n(C(C)C)c5c4)n3)nc2)CC1; assay: increase in dead-cell fraction, 72 h; higher = more death;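 also: breast cancer cell lines in 384-well plates, stained with Hoechst plus LIVE/DEAD far red dye and imaged, cells above an LDR intensity threshold counted dead, Hoechst-negative corpses included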
[10] = compound: T1, Flavopiridol; assay: as above
[11] = compound: T2, LEE011/Ribociclib; assay: as above
[12] = compound: CC(=O)c1c(C)c2cnc(Nc3ccc(N4CCNCC4)cn3)nc2n(C2CCCC2)c1=O; assay: as above

HCC1569
GR value ([1]; 0.0001 µM): 1.03 GR
GR value ([1]; 0.0003162 µM): 0.932 GR
GR value ([1]; 0.001 µM): 1.06 GR
GR value ([1]; 0.003162 µM): 0.984 GR
GR value ([1]; 0.01 µM): 0.928 GR
GR value ([1]; 0.03162 µM): -0.0195 GR
GR value ([1]; 0.1 µM): -0.224 GR
GR value ([1]; 0.3162 µM): -0.229 GR
GR value ([1]; 1 µM): -0.251 GR
GR value ([2]; 0.0001 µM): 1.16 GR
GR value ([2]; 0.0003162 µM): 1.14 GR
GR value ([2]; 0.001 µM): 1.15 GR
GR value ([2]; 0.003162 µM): 1.42 GR
GR value ([2]; 0.01 µM): 0.908 GR
GR value ([2]; 0.03162 µM): 0.468 GR
GR value ([2]; 0.1 µM): -0.112 GR
GR value ([2]; 0.3162 µM): -0.346 GR
GR value ([2]; 1 µM): -0.325 GR
GR value ([3]; 0.001 µM): 1.01 GR
GR value ([3]; 0.003162 µM): 0.944 GR
GR value ([3]; 0.01 µM): 1.04 GR
GR value ([3]; 0.03162 µM): 0.922 GR
GR value ([3]; 0.1 µM): 1.08 GR
GR value ([3]; 0.3162 µM): 0.841 GR
GR value ([3]; 1 µM): 0.5 GR
GR value ([3]; 3.162 µM): 0.693 GR
GR value ([3]; 10 µM): -0.102 GR
GR value ([4]; 0.001 µM): 0.941 GR
GR value ([4]; 0.003162 µM): 0.932 GR
GR value ([4]; 0.01 µM): 0.955 GR
GR value ([4]; 0.03162 µM): 1.05 GR
GR value ([4]; 0.1 µM): 0.985 GR
GR value ([4]; 0.3162 µM): 1.07 GR
GR value ([4]; 1 µM): 0.822 GR
GR value ([4]; 3.162 µM): 0.639 GR
GR value ([4]; 10 µM): 0.0637 GR
GR value ([5]; 0.0001 µM): 1.24 GR
GR value ([5]; 0.0003162 µM): 1.13 GR
GR value ([5]; 0.001 µM): 0.828 GR
GR value ([5]; 0.003162 µM): 1.19 GR
GR value ([5]; 0.01 µM): 1.02 GR
GR value ([5]; 0.03162 µM): 0.846 GR
GR value ([5]; 0.1 µM): 0.422 GR
GR value ([5]; 0.3162 µM): 0.0517 GR
GR value ([5]; 1 µM): -0.284 GR
GR value ([6]; 0.001 µM): 1.04 GR
GR value ([6]; 0.003162 µM): 1.1 GR
GR value ([6]; 0.01 µM): 1.07 GR
GR value ([6]; 0.03162 µM): 0.978 GR
GR value ([6]; 0.1 µM): 1.09 GR
GR value ([6]; 0.3162 µM): 0.913 GR
GR value ([6]; 1 µM): 1.26 GR
GR value ([6]; 3.162 µM): 1.32 GR
GR value ([6]; 10 µM): 0.86 GR
GR value ([7]; 0.0003162 µM): 0.957 GR
GR value ([7]; 0.001 µM): 0.991 GR
GR value ([7]; 0.003162 µM): 1.03 GR
GR value ([7]; 0.01 µM): 1.05 GR
GR value ([7]; 0.03162 µM): 0.928 GR
GR value ([7]; 0.1 µM): 0.938 GR
GR value ([7]; 0.3162 µM): 1.06 GR
GR value ([7]; 1 µM): 0.932 GR
GR value ([7]; 3.162 µM): 1.05 GR
GR value ([8]; 0.0003162 µM): 0.95 GR
GR value ([8]; 0.001 µM): 0.948 GR
GR value ([8]; 0.003162 µM): 0.863 GR
GR value ([8]; 0.01 µM): 0.708 GR
GR value ([8]; 0.03162 µM): 0.612 GR
GR value ([8]; 0.1 µM): 0.537 GR
GR value ([8]; 0.3162 µM): 0.363 GR
GR value ([8]; 1 µM): 0.225 GR
GR value ([8]; 3.162 µM): 0.124 GR
increase in dead-cell fraction ([9]; 0.001 µM): -0.0009
increase in dead-cell fraction ([9]; 0.003162 µM): 0.0054
increase in dead-cell fraction ([9]; 0.01 µM): 0.0105
increase in dead-cell fraction ([9]; 0.03162 µM): 0.0034
increase in dead-cell fraction ([9]; 0.1 µM): -0.0024
increase in dead-cell fraction ([9]; 0.3162 µM): -0.0047
increase in dead-cell fraction ([9]; 1 µM): 0.0011
increase in dead-cell fraction ([9]; 3.162 µM): 0.0024
increase in dead-cell fraction ([9]; 10 µM): 0.0361
increase in dead-cell fraction ([10]; 0.0001 µM): -0.0248
increase in dead-cell fraction ([10]; 0.0003162 µM): 0.001
increase in dead-cell fraction ([10]; 0.001 µM): 0.0101
increase in dead-cell fraction ([10]; 0.003162 µM): 0.0075
increase in dead-cell fraction ([10]; 0.01 µM): -0.0095
increase in dead-cell fraction ([10]; 0.03162 µM): -0.0064
increase in dead-cell fraction ([10]; 0.1 µM): 0.0067
increase in dead-cell fraction ([10]; 0.3162 µM): 0.0986
increase in dead-cell fraction ([10]; 1 µM): 0.102
increase in dead-cell fraction ([11]; 0.001 µM): 0.0294
increase in dead-cell fraction ([11]; 0.003162 µM): 0.0001
increase in dead-cell fraction ([11]; 0.01 µM): -0.0082
increase in dead-cell fraction ([11]; 0.03162 µM): 0.0025
increase in dead-cell fraction ([11]; 0.1 µM): -0.0135
increase in dead-cell fraction ([11]; 0.3162 µM): -0.0045
increase in dead-cell fraction ([11]; 1 µM): -0.0042
increase in dead-cell fraction ([11]; 3.162 µM): -0.0048
increase in dead-cell fraction ([11]; 10 µM): -0.0015
increase in dead-cell fraction ([12]; 0.0003162 µM): 0.0023
increase in dead-cell fraction ([12]; 0.001 µM): -0.0102
increase in dead-cell fraction ([12]; 0.003162 µM): 0.0038
increase in dead-cell fraction ([12]; 0.01 µM): 0.0052
increase in dead-cell fraction ([12]; 0.03162 µM): -0.0056
increase in dead-cell fraction ([12]; 0.1 µM): -0.0096
increase in dead-cell fraction ([12]; 0.3162 µM): 0.0042
increase in dead-cell fraction ([12]; 1 µM): 0.0001
increase in dead-cell fraction ([12]; 3.162 µM): -0.0109
